The results in this text go back to DBAASP.

Values after ≈ are worked out from the molar mass of the structure shown. Where only a bound is given, the exact number is not on record here.

Test in all cases: ≥ marks a high value that may be exact or a test limit, other limits are often not marked, values filed in µg/mL are converted to µM
Assay [1] relates to Pseudomonas aeruginosa 253.
The test system of assay [2] is Pseudomonas aeruginosa 910.
In assay [3] the test system is Pseudomonas aeruginosa 919.
For assay [4], the system named is Pseudomonas aeruginosa PAO1.
For assay [5], the system named is Streptococcus mutans UA159.
Assay [6] deals with Streptococcus sanguinis ATCC 10556.
Assay [7] relates to Streptococcus sobrinus ATCC 6715.
Assay [8] deals with Candida albicans ATCC 90028.
The test system of assay [9] is Enterobacter cloacae NHTCC 53001.
Assay [10] deals with Enterococcus faecalis ATCC 29212.
Assay [11] relates to Escherichia coli ATCC 25922.
Assay [12] concerns Klebsiella pneumoniae KK3 9904.
The subject of assay [13] is Proteus mirabilis ATCC 25933.
Assay [14] has as its system Pseudomonas aeruginosa ATCC 27853.
The test system of assay [15] is Staphylococcus aureus NCTC 8325.
For assay [16], the system named is Staphylococcus epidermidis RP62A.
For assay [17], the system named is Bacillus subtilis CCT 2471.
The test system of the next assay is Candida albicans.
Assay [18] relates to Escherichia coli CCT 1371.
In assay [19] the test system is Pseudomonas aeruginosa ATCC 15442.
The subject of assay [20] is Staphylococcus aureus ATCC 25923.
The subject of assay [21] is Staphylococcus aureus ATCC 6538.
Assay [22] has as its system Staphylococcus epidermidis.
The test system of assay [23] is Staphylococcus saprophyticus.
In assay [24] the test system is Acinetobacter baumannii ATCC 7978.
The test system of assay [25] is Enterococcus faecium E007.
Assay [26] relates to Pseudomonas aeruginosa PA14.
For assay [27], the system named is Staphylococcus aureus ATCC 29231.
Assay [28] has as its system Candida albicans ATCC 10231.
A further assay concerns Escherichia coli UB1005.
For assay [29], the system named is Pseudomonas aeruginosa H103.
Assay [30] deals with Salmonella enterica serovar Typhimurium.

Usually MIC stands for the lowest concentration that inhibits growth of the organism. High values mean a need for much substance, low ones inhibition by little substance. As to `CC[C@H](C)[C@H](NC(=O)[C@@H](N)Cc1ccccc1)C(=O)N[C@@H](CCCCN)C(=O)N[C@@H](Cc1c[nH]c2ccccc12)C(=O)N[C@@H](CCCN=C(N)N)C(=O)N[C@@H](Cc1ccccc1)C(=O)N[C@@H](CCCN=C(N)N)C(=O)N[C@@H](CCCN=C(N)N)C(=O)N[C@@H](Cc1c[nH]c2ccccc12)C(=O)N[C@@H](CCCCN)C(=O)N[C@@H](CCCCN)C(=O)N[C@@H](CCCN=C(N)N)C(=O)N[C@H](C(N)=O)[C@@H](C)O` [FIKWRFRRWKKRT], the MIC is 16 µM (≈ 30.5 µg/mL) in assay [1], 8 µM (≈ 15.3 µg/mL) in assay [2], at least 32 µM in assay [3] and 4 µM (≈ 7.63 µg/mL) in [4].
`NCCCC[C@H](NC(=O)[C@H](CCCCN)NC(=O)[C@H](Cc1ccccc1)NC(=O)[C@H](Cc1ccccc1)NC(=O)[C@H](CCCCN)NC(=O)[C@H](CCCCN)NC(=O)[C@H](Cc1ccccc1)NC(=O)[C@H](Cc1ccccc1)NC(=O)[C@H](CCCCN)NC(=O)[C@@H](N)Cc1ccccc1)C(=O)N[C@@H](Cc1c[nH]c2ccccc12)C(=O)O` [FKFFKKFFKKW]: the MIC amounted to 10.1 µM (≈ 16 µg/mL) in [5], 20.2 µM (≈ 32 µg/mL) in assay [6] and 10.1 µM (≈ 16 µg/mL) in assay [7].
Consider `CC(C)C[C@H](NC(=O)[C@H](C)NC(=O)[C@H](CCCCN)NC(=O)[C@H](C)NC(=O)[C@H](C)NC(=O)CNC(=O)[C@H](CCCCN)NC(=O)[C@H](CC(C)C)NC(=O)[C@H](CC(C)C)NC(=O)[C@H](CC(=O)O)NC(=O)[C@H](CCCCN)NC(=O)[C@H](Cc1ccccc1)NC(=O)CN)C(=O)N[C@H](C(=O)N[C@@H](CCCCN)C(=O)N[C@H](C(=O)N[C@H](C(=O)N[C@@H](CC(C)C)C(=O)N[C@@H](Cc1ccccc1)C(=O)O)C(C)C)[C@@H](C)O)C(C)C` [GFKDLLKGAAKALVKTVLF], for which the MIC in assay [8] is at least 100 µM; in assay [9], 13 µM (≈ 26.3 µg/mL); in [10], above 100 µM; in assay [11] it was 6 µM (≈ 12.1 µg/mL); in assay [12] it was 25 µM (≈ 50.5 µg/mL); in assay [13], at least 100 µM. Also, the minimum inhibitory concentration (MIC) was 50 µM (≈ 101 µg/mL) in assay [14], at least 50 µM in assay [15] and 25 µM (≈ 50.5 µg/mL) in assay [16].
For the compound `CC[C@H](C)[C@H](NC(=O)CN)C(=O)N[C@@H](CCCCN)C(=O)N[C@@H](CC(=O)O)C(=O)N[C@@H](Cc1c[nH]c2ccccc12)C(=O)N[C@H](C(=O)N[C@@H](CCCCN)C(=O)NCC(=O)N[C@@H](C)C(=O)N[C@@H](C)C(=O)N[C@@H](CCCCN)C(=O)N[C@@H](CCCCN)C(=O)N[C@@H](CC(C)C)C(=O)N[C@H](C(=O)N[C@@H](CCCCN)C(=O)N[C@H](C(=O)N[C@H](C(=O)N[C@@H](C)C(=O)N[C@@H](CO)C(=O)N[C@@H](Cc1cnc[nH]1)C(=O)N[C@H](C(=O)N[C@@H](C)C(=O)N[C@@H](CC(N)=O)C(=O)N[C@@H](CCC(N)=O)C(=O)O)[C@@H](C)CC)C(C)C)[C@@H](C)O)[C@@H](C)CC)[C@@H](C)CC` [GIKDWIKGAAKKLIKTVASHIANQ], the MIC was at least 100 µM in assay [8]; 6 µM (≈ 15.5 µg/mL) in assay [9]; above 100 µM in assay [10]; 6 µM (≈ 15.5 µg/mL) in assay [11]; 13 µM (≈ 33.7 µg/mL) in [12]; at least 100 µM in assay [13]. For the same compound, the MIC was 13 µM (≈ 33.7 µg/mL) in [14], at least 50 µM in [15] and 13 µM (≈ 33.7 µg/mL) in [16].
On to `CC[C@H](C)[C@H](N)C(=O)N[C@@H](CC(C)C)C(=O)N[C@@H](CCCCN)C(=O)N[C@@H](Cc1c[nH]c2ccccc12)C(=O)N[C@@H](CCCCN)C(=O)N[C@H](C(=O)N[C@@H](CCCCN)C(=O)N[C@@H](Cc1c[nH]c2ccccc12)C(=O)N[C@@H](Cc1c[nH]c2ccccc12)C(=O)N[C@@H](CCCCN)C(=O)N[C@@H](Cc1c[nH]c2ccccc12)C(=O)N[C@@H](Cc1ccccc1)C(=O)N[C@@H](CCCN=C(N)N)C(N)=O)[C@@H](C)O` [ILKWKTKWWKWFR], for which the MIC in assay [1] turned out to be 4 µM (≈ 7.62 µg/mL); in assay [2], 4 µM (≈ 7.62 µg/mL); in assay [3], 16 µM (≈ 30.5 µg/mL); in [4], 2 µM (≈ 3.81 µg/mL).
Consider `CC[C@H](C)[C@H](NC(=O)CNC(=O)[C@H](CCCCN)NC(=O)[C@H](C)NC(=O)[C@@H](NC(=O)[C@H](CCCCN)NC(=O)[C@@H](N)CC(C)C)[C@@H](C)CC)C(=O)N[C@H](C(=O)N[C@@H](CCCCN)C(=O)N[C@@H](CO)C(=O)N[C@@H](CC(C)C)C(=O)O)[C@@H](C)CC` [LKIAKGIIKSL], for which the MIC in [17] is at least 84.5 µM; against Candida albicans, above 84.5 µM; in assay [11], above 84.5 µM; in [18], at least 84.5 µM; in [19], at least 84.5 µM; in assay [20], above 84.5 µM. Also, the results for the MIC in assay [21], in [22] and in [23] were above 84.5 µM, at least 84.5 µM and at least 84.5 µM, respectively.
Turning to `CC[C@H](C)[C@H](NC(=O)[C@H](CCCCN)NC(=O)[C@H](CCCCN)NC(=O)[C@@H](N)CC(C)C)C(=O)NCC(=O)N[C@@H](CCCCN)C(=O)N[C@@H](CCCCN)C(=O)N[C@H](C(=O)N[C@@H](Cc1c[nH]c2ccccc12)C(=O)N[C@@H](CCCN=C(N)N)C(=O)N[C@H](C(=O)NCC(=O)O)C(C)C)[C@@H](C)CC` [LKKIGKKIWRVG], the MIC in [24], in [25], in assay [26] and in assay [27] was at least 89.8 µM in each case.
`CC[C@H](C)[C@H](NC(=O)[C@H](CCCCN)NC(=O)[C@H](CCCCN)NC(=O)[C@H](Cc1c[nH]c2ccccc12)NC(=O)[C@@H](NC(=O)[C@H](CCCCN)NC(=O)[C@H](Cc1c[nH]c2ccccc12)NC(=O)[C@@H](N)CC(C)C)[C@@H](C)CC)C(=O)N[C@@H](Cc1c[nH]c2ccccc12)C(=O)N[C@@H](CCCN=C(N)N)C(=O)N[C@H](C(=O)N[C@@H](Cc1c[nH]c2ccccc12)C(=O)N[C@@H](Cc1c[nH]c2ccccc12)C(=O)N[C@@H](CC(N)=O)C(=O)N[C@@H](Cc1c[nH]c2ccccc12)C(=O)N[C@@H](CCCN=C(N)N)C(=O)O)C(C)C` [LWKIWKKIWRVWWNWR]: the MIC was 53.7 µM (≈ 128 µg/mL) in [28], at least 53.7 µM in assay [25], 26.8 µM (≈ 64 µg/mL) in assay [26] and 13.1 µM (≈ 31.3 µg/mL) in [27].
Turning to `CC[C@H](C)[C@H](NC(=O)[C@H](CCCN=C(N)N)NC(=O)[C@H](Cc1c[nH]c2ccccc12)NC(=O)[C@H](CCCN=C(N)N)NC(=O)[C@@H](N)C(C)C)C(=O)N[C@@H](CCCN=C(N)N)C(=O)N[C@H](C(=O)N[C@@H](C)C(=O)N[C@H](C(=O)N[C@H](C(=O)N[C@@H](CCCN=C(N)N)C(=O)N[C@@H](C)C(=O)O)[C@@H](C)CC)C(C)C)C(C)C` [VRWRIRVAVIRA], the MIC in the assay with Candida albicans stood at 8.03 µM (≈ 12 µg/mL); in the assay on Escherichia coli UB1005, 1.07 µM (≈ 1.6 µg/mL); in assay [1], 16 µM (≈ 23.9 µg/mL); in assay [2], 16 µM (≈ 23.9 µg/mL); in assay [3], 8 µM (≈ 12 µg/mL); in assay [29], 4.01 µM (≈ 6 µg/mL). In addition, the minimal inhibitory concentration (MIC) in [4] was 8 µM (≈ 12 µg/mL); in [30], 4.01 µM (≈ 6 µg/mL); in [20], 8.03 µM (≈ 12 µg/mL); in [22], 1.07 µM (≈ 1.6 µg/mL).
